Active and inactive are the calls of the source. The calls are words filed in the database; no cut-off is given here.
What was measured:
Mus musculus [1] = experiment: Neuroprotective activity in C57BL/6 mouse model of transient middle cerebral artery occlusion induced cerebral ischemia reperfusion injury assessed reduction in infarct size at 10 mg/kg, ip measured after 24 hrs by TTC staining based assay; assay type: functional, organism-based
[2] = (§1) Downregulation of cyt-c expression in cortex of C57BL/6 mouse model of transient middle cerebral artery occlusion induced cerebral ischemia reperfusion injury at 10 mg/kg, ip measured after 24 hrs of reperfusion by immunohistochemistry (reference value: 15.58 +/- 2.34); assay type: functional
[3] = as §1, with “AIF” for “cyt-c”, “injury assessed as AIP-posotive cells in hippocampus” for “injury”, “27.35” for “15.58”, “3.67)” for “2.34)”; assay type: functional
Mus musculus [4] = experiment: Neuroprotective activity in C57BL/6 mouse model of transient middle cerebral artery occlusion induced cerebral ischemia reperfusion injury assessed as change in infract volume at 10 mg/kg, ip measured after 24 hrs by TTC staining based assay (reference value: 21.86 +/- 4.65 %); assay type: functional
[5] = as §1, with “AIF” for “cyt-c”, “injury assessed as AIP-posotive cells in ischemic cortex” for “injury”, “46.7” for “15.58”, “3.45)” for “2.34)”; assay type: functional
Mus musculus [6] = experiment: (§2) Neuroprotective activity in C57BL/6 mouse model of transient middle cerebral artery occlusion induced cerebral ischemia reperfusion injury assessed as inhibition of apoptosis by measuring decrease in TUNEL positive nuclei in cortex at 10 mg/kg, ip measured after 12 hrs by TUNEL staining based assay (reference value: 53.64 +/- 7.63); assay type: functional
Mus musculus [7] = species: Mus musculus; experiment: Neuroprotective activity in C57BL/6 mouse model of transient middle cerebral artery occlusion induced cerebral ischemia reperfusion injury assessed as neuronal apoptosis by measuring increase in caspase-3 positive cells incubated for 1 hrs by immunohistochemistry; assay type: functional, organism-based
Mus musculus [8] = experiment: Neuroprotective activity in C57BL/6 mouse model of transient middle cerebral artery occlusion induced cerebral ischemia reperfusion injury assessed as neurological deficits at 10 mg/kg, ip measured 24 hrs after reperfusion by […] (reference value: 5.86 +/- 0.64); assay type: functional
[9] = Downregulation of cyt-c expression in hippocampus of C57BL/6 mouse model of transient middle cerebral artery occlusion induced cerebral ischemia reperfusion injury at 10 mg/kg, ip measured after 24 hrs of reperfusion by immunohistochemistry (reference value: 20.52+/- 2.08); assay type: functional
Mus musculus [10] = experiment: as §2, with “hippocampus” for “cortex”, “55.42” for “53.64”, “4.86)” for “7.63)”; assay type: functional
[11] = Downregulation of cyt-c expression in hippocampus of C57BL/6 mouse model of transient middle cerebral artery occlusion induced cerebral ischemia reperfusion injury measured after 24 hrs of reperfusion by immunohistochemistry; assay type: functional
[12] = Downregulation of cyt-c expression in cortex of C57BL/6 mouse model of transient middle cerebral artery occlusion induced cerebral ischemia reperfusion injury measured after 24 hrs of reperfusion by immunohistochemistry; assay type: functional
Mus musculus [13] = experiment: Neuroprotective activity in C57BL/6 mouse model of transient middle cerebral artery occlusion induced cerebral ischemia reperfusion injury assessed as inhibition of apoptosis by measuring decrease in caspase-3 positive cells in cortex at 10 mg/kg, ip incubated for 1 hrs by immunohistochemistry (reference value: 7.58 +/- 2.15); assay type: functional
Mus musculus [14] = species: Mus musculus; experiment: Neuroprotective activity in C57BL/6 mouse model of transient middle cerebral artery occlusion induced cerebral ischemia reperfusion injury assessed as neuronal apoptosis by measuring increase in TUNEL positive nuclei measured after 12 hrs by TUNEL staining based assay; assay type: functional, organism-based

## c1cc(-c2cnn3cc(-c4ccc(OCCN5CCCCC5)cc4)cnc23)ccn1 [DORSOMORPHIN]
Mus musculus [1]
  Activity: Active
[2]
  fold change (FC): 45.32
[3]
  fold change (FC): 13.17
Mus musculus [4]
  Activity: 42.56%
[5]
  fold change (FC): 26.36
Mus musculus [6]
  Activity: 53.64
Mus musculus [7]
  Activity: Active
Mus musculus [8]
  Activity: 9.26
[9]
  fold change (FC): 52.08
Mus musculus [10]
  Activity: 55.42
[11]
  fold change (FC): 52.08
[12]
  fold change (FC): 45.32
Mus musculus [13]
  Activity: 15.63
Mus musculus [14]
  Activity: Active

Reference: ChEMBL document CHEMBL5055680, “AMPK inhibitor BML-275 induces neuroprotection through decreasing cyt c and AIF expression after transient brain ischemia” (2021)
